This test has as its system Primary human melanocytes. As to the kind of experiment: Melanin content in-vitro assay after siRNA transfection. The test is classed as cell-based. The arrangement: dose or concentration left out as unconfirmed. Conditions: 72 hours; average of 3 readings. Here is the method:
Ten siRNA double strands of which one strand has the oligonucleotide as given below were synthetically prepared and used to estimate the potential as skin lightening agent using the melanin content in-vitro assay. It is clear to a person skilled in this area that specifying a single strand is sufficient to fully define the double stranded siRNA. The in-vitro assay was carried out as below: Primary human melanocytes were cultured for 24 hrs. Cells were transfected with Mirus Trans IT-TKO transfection reagent and duplex oligomers in culture media. […] After 1 hour at 60° C., absorbance was measured at 400 nm. Melanin content is expressed as % melanin content over scramble treated cells. The experiments were carried out and the data on melanin content as a percentage of the control sample is summarized as an average of 3 readings in table 1. Kojic acid is known to complete action within 72 hours.

The record followed here is patent US9295631B2, “Skin lightening composition” (Conopco, Inc., priority 2012, dated 2016).

In the case of `O=c1cc(CO)occ1O` [Kojic acid], the “% control melanin” value was 76%.
